Where two headings read alike, the source gives them in different places. Where no end group is shown, it is not given here.
Legend:
amylin = molecular target: T1, amylin (Homo sapiens, UniProt P10997); assay: Amylin aggregation with 14,15-EET (FIG. 15A); type: biochemical
T1 construct: is a 37-amino acid peptide synthesized and co-secreted with insulin
T1 sequence (P10997 34-70 limits assumed): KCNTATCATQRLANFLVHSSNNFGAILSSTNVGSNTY

cardiac myocytes = assay: Amylin incorporation in cardiac myocytes ex vivo (FIG. 15B); type: cell-based
Experimental: Cardiac myocytes were isolated from rats in all rat groups. Isolated myocytes are used for testing myocyte accumulation of amylin (by ELISA and Western blot, as shown before^8,10), sarcolemmal structural integrity (dye leakage assay, electron microscopy, LC-MS/MS and fluorescent markers) and myocyte Ca^2+ cycling (see below). Each experiment is performed on hearts/myocytes from a number of rats/group. Calculation of the minimum sample size with a two-tail t-test considering α=0.05 and 1−β=0.8; performed with GPower 3.1.9.2.

[1] = test system: RBCs / cultured vascular endothelial cells; assay: RBC adhesion assay on cultured vascular endothelial cells; type: cell-based, rat
Experimental: RBCs collected from each HIP rat group (normal, pre-diabetes, diabetes, ±high-fat diet) are infused into AKO rats (300 μL RBCs, daily, 7 days, q.d., via the tail vein). Because diabetes develops later (by 6 mo) in female vs. male HIP rats, AKO rats are matched for age and sex to HIP rats providing the RBCs for infusion. At the end of infusion period, rats are sacrificed, perfused with saline through a catheter implanted into the right external jugular vein to wash out the blood from blood vessels, followed by heart collection and paraffin embedding. Confocal microscopy is used to identify the attachment of amylin-loaded RBCs to vascular endothelium (as in FIG. 5A). Before analysis, heart sections are incubated with 1% Sudan black to block autofluorescence. Control sections with either omitted primary or secondary antibodies are used to establish specific staining. […] Adherence is calculated as percentage of optical density of adhered Hb (as in FIG. 5C).
In some embodiments, adult rat microvascular endothelial cells (RA-6024, Cell Biologics, IL) were cultured on 96-wells cell culture plate coated with cell attachment factor solution (123-100, Sigma, MO). […] The amount of hemoglobin in each well was measured from the optical density (OD) as described above. Adherence was calculated as the percentage of OD of adhered hemoglobin/(OD of total hemoglobin×dilution factor).

HIP rats = details: cited from earlier work
WT rat RBCs = assay: RBC shape by flow cytometry after incubation with human amylin; type: cell-based
Experimental: In all rat groups (±high-fat diet), the RBC shape distributions are analyzed by FACScan flow cytometry (Becton Dickinson LSRII) as a function of characteristic RBC amylin levels, as in FIG. 4D. The Pearson coefficient of dissymmetry (PCD) shown in FIG. 4D reflects the sphericity of RBCs (PCD=0 indicates RBC spherical shape).
In some embodiments, RBCs (1×10^7 cells) were aliquoted to assay tubes, washed twice with 2 mL incubation buffer (0.5% BSA in PBS), and resuspended in 100 μL incubation buffer. RBCs were incubated with an anti-amylin antibody (1:200, T-4157, Bachem-Peninsula Laboratories, CA) for 1 hour on ice, washed twice with PBS by centrifugation at 1000×g for 1 minute and then incubated with goat anti-rabbit Alexa Fluor® 488 (A11029, Invitrogen, MA) for 30 min on ice. RBCs were then washed twice before re-suspension in 200 μl PBS, and analyzed by flow cytometer (Becton Dickinson LSRII) within 90 min. To assess the cell shape, RBCs were first gated on a forward scatter (FSC)/side scatter (SSC) plot. The R1 events arevisualized using a FSC-A/FSC-H dot plot. For detecting amylin deposited on RBCs, the cells were first gated on a forward scatter (FSC)/side scatter (SSC) plot. RBCs were further gated to determine the amylin signal (Alexa 488), using negative control (no antibody) and positive control to set the upper and lower boundaries.

diabetic UCD rats = assay: Intravenous aggregated human amylin in diabetic UCD rats; type: in vivo, rat
Experimental: To examine further a possible ‘amylin stress” on oxygen-sensing pathways, aggregated human amylin (hA) (0.08 μg/g body weight) was intravenously administered to diabetic UCD rats, daily, for one week. […] This acute “amylin stress” provoked an increase in plasma EPO level (FIG. 23E; the “after hA inj” rat group) and no difference in renal HIF-2α and HIF-1α levels in whole kidney tissue homogenate (FIG. 23F).

AKO mice = details: cited from earlier work; for amylin deposits in the myocardium: i.v. q.d., 7 days
[2] = kidney tissue homogenates, FIG. 23G

Compound: CCCCCC1OC1C/C=C\C/C=C\C/C=C\CCCC(=O)O (racemic) [14,15-EET, (±)14(15)-EET]
- amylin aggregation (amylin): reduced
- amylin incorporation in cardiac myocytes (cardiac myocytes): reduced
- adhesion of HIP rat RBCs to cultured endothelial cells ([1]; ex vivo incubation, FIG. 22D): reduced

Compound: CC(=O)N1CCC(NC(=O)NC23CC4CC(CC(C4)C2)C3)CC1 [APAU]
- amylin incorporation into RBCs and cardiac myocytes (HIP rats; pre-diabetic HIP rats): lower
- heart function (HIP rats; pre-diabetic HIP rats, prior study): improved
- levels of aggregated amylin in blood and cardiac myocytes (HIP rats; pre-diabetic male HIP rats, 10 weeks, prior study): lower levels

Compound: human amylin: 37-amino acid amyloid-forming peptide (islet amyloid polypeptide; IAPP), used recombinant/synthetic, aggregated (KCNTATCATQRLANFLVHSSNNFGAILSSTNVGSNTY)
- RBC adherence to cultured endothelial cells ([1]; WT rat RBCs incubated 50 μmol/L, 2 h, FIG. 5C): increased
- structural change of RBCs (rounded shape) (WT rat RBCs; 50 μmol/L, 2 h): replicated
- morphological change of RBCs (PCD) (WT rat RBCs; 4 hours, FIG. 27): replicated
- amylin deposition on RBCs (diabetic UCD rats; 0.08 μg/g body weight i.v. daily, one week, FIG. 23D): amylin deposition on RBCs
- plasma EPO level (diabetic UCD rats; 0.08 μg/g i.v. daily, one week, vs baseline, FIG. 23E): increase
- Arginase 1 protein levels (diabetic UCD rats; [2]): elevated
- arginase 2 protein expression (diabetic UCD rats; [2]): no significant change
- renal HIF-2α and HIF-1α levels (diabetic UCD rats; whole kidney tissue homogenate, FIG. 23F): no difference
- Sarcolemmal Ca2+ leak and Ca2+ transients (AKO mice; females): no significant changes
- amylin deposits in the myocardium (AKO mice): showed amylin deposits in the myocardium
- Sarcolemmal Ca2+ leak and Ca2+ transients (AKO mice; myocytes from male AKO mice): increased

Compound: rodent amylin: non-amyloidogenic (i.e., monomeric) rodent amylin (KCNTATCATQRLANFLVRSSNNLGPVLPPTNVGSNTY; ends and bridges not checked; cysteine pairing not given here; UniProt P12969 38-74, looked up)
- amylin deposits in the myocardium (AKO mice): not
- Sarcolemmal Ca2+ leak and Ca2+ transients (AKO mice; rat amylin-infused mice): no significant changes

Reference: US12115141B2, “Diagnosis of diabetes by detecting aggregated amylin in erythrocytes” (University of Kentucky Research Foundation, priority 2018, dated 2024)
